Tests used:
LNCaP = experiment: Antiproliferative activity against human LNCAP cells; assay type: functional, cell-based
[1] = molecular target: Serine/threonine-protein kinase mTOR (Homo sapiens, UniProt P42345); experiment: Inhibition of mTOR
[2] = molecular target: Phosphatidylinositol 4,5-bisphosphate 3-kinase catalytic subunit alpha isoform (Homo sapiens, UniProt P42336); experiment: Inhibition of PI3Kalpha
[3] = Selectivity ratio of IC50 for PI3Kalpha to IC50 for mTOR

Chain of Phosphatidylinositol 4,5-bisphosphate 3-kinase catalytic subunit alpha isoform (P42336 whole entry, canonical isoform): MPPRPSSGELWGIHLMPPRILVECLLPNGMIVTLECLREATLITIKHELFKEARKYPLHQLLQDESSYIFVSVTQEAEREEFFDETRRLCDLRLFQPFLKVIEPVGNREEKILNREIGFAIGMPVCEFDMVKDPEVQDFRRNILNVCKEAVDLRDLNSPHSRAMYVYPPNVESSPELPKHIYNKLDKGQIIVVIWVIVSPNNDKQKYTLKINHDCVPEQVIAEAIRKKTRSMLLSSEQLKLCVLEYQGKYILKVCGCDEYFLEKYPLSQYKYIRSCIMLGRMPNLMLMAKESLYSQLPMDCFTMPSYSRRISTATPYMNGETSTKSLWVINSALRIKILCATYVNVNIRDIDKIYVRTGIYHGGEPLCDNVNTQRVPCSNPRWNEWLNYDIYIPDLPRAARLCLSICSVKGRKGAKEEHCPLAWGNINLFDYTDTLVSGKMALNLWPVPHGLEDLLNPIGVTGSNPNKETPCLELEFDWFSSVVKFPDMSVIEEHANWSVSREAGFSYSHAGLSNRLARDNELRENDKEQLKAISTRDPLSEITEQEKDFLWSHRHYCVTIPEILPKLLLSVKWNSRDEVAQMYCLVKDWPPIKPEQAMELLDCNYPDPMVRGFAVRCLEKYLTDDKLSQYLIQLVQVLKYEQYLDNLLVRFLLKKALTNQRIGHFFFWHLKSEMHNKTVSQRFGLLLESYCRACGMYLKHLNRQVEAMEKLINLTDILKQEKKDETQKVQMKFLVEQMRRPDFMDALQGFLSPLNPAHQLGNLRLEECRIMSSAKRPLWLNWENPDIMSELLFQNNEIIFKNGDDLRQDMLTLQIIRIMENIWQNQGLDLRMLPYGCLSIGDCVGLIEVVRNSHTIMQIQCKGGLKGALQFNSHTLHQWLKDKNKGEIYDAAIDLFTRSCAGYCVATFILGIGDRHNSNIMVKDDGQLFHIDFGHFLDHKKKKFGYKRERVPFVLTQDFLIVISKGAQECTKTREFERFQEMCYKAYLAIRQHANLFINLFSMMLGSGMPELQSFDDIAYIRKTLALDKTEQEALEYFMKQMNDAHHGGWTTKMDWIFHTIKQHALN

With `CNC(=O)Nc1ccc2c(c1)C(=O)/C(=C/c1cn(C)c3nccc(N4CC5CCC(C4)O5)c13)O2` as the compound, how does the IC50 (LNCaP) read?
The IC50 was 0.14 µM.

What does the source list for `CN(Cc1ccccc1)C(=O)C1CCN(c2ccnc3c2c(/C=C2\Oc4ccc(NC(=O)Nc5cccnc5)cc4C2=O)cn3C)CC1`?
IC50 [1]: 0.102 µM; IC50 [2]: > 10 µM; IC50 (LNCaP): 0.02 µM

For `Cn1cc(/C=C2\Oc3ccc(NC(=O)Nc4cccnc4)cc3C2=O)c2c(N3CC4CCC(C3)O4)ccnc21`, which IC50 (LNCaP) is on record?
The IC50 was 0.015 µM.

With `CN(C(=O)C1CCN(c2ccnc3c2c(/C=C2\Oc4ccc(NC(=O)Nc5cccnc5)cc4C2=O)cn3C)CC1)c1cccnc1` as the compound, how does the IC50 (LNCaP) read?
Its IC50 is 0.3 µM.

Which IC50 (LNCaP) does the source give for `Cn1cc(/C=C2\Oc3ccc(NC(=O)Nc4cccnc4)cc3C2=O)c2c(N3CCOCC3)ccnc21` here?
The IC50 was 0.05 µM.

With `Cn1cc(/C=C2\Oc3cccc(O)c3C2=O)c2c(-c3ccccc3)ccnc21` as the compound, how does the Ratio IC50 [3] read?
The Ratio IC50 was 25.4.

And the IC50 (LNCaP)?
The IC50 was 0.2 µM.

Which IC50 (LNCaP) does the source give for `CNC(=O)Nc1cccc2c1C(=O)/C(=C/c1cn(C)c3nccc(-c4ccccc4)c13)O2` here?
Its IC50 is greater than 60 µM.

With `CN(C)C(=O)C1CCN(c2ccnc3c2c(/C=C2\Oc4ccc(NC(=O)Nc5cccnc5)cc4C2=O)cn3C)CC1` as the compound, how does the IC50 (LNCaP) read?
The IC50 was 0.08 µM.

Which IC50 (LNCaP) does the source give for `Cn1cc(/C=C2\Oc3ccc(NC(=O)Nc4cccnc4)cc3C2=O)c2c(N3CCC(C(=O)N4CC5CCC(C4)O5)CC3)ccnc21` here?
Its IC50 is 0.09 µM.

Which IC50 (LNCaP) does the source give for `CCNC(=O)Nc1ccc2c(c1)C(=O)/C(=C/c1cn(C)c3nccc(N4CC5CCC(C4)O5)c13)O2` here?
The IC50 was 2.8 µM.

With `Cn1cc(/C=C2\Oc3ccc(NC(=O)Nc4ccc(N5CCOCC5)nc4)cc3C2=O)c2c(N3CC4CCC(C3)O4)ccnc21` as the compound, how does the Ratio IC50 [3] read?
The Ratio IC50 was 76.6.

And the IC50 (LNCaP)?
Its IC50 is greater than 60 µM.

With `Cn1cc(/C=C2\Oc3ccc(NC(=O)Nc4cccnc4)cc3C2=O)c2c(N3CCC(C(=O)N4CCCCC4)CC3)ccnc21` as the compound, how does the Ratio IC50 [3] read?
Its Ratio IC50 is 12.6.

What about the IC50 (LNCaP) of the same compound?
Its IC50 is 0.018 µM.

With `Cn1cc(/C=C2\Oc3ccc(NC(=O)Nc4cccnc4)cc3C2=O)c2c(N3CCC(C(=O)NCc4cccnc4)CC3)ccnc21` as the compound, how does the IC50 [1] read?
Its IC50 is 0.009 µM.

What about the IC50 [2] of the same compound?
Its IC50 is 4.04 µM.

And the Ratio IC50 [3]?
Its Ratio IC50 is 450.

And the IC50 (LNCaP)?
Its IC50 is 60 µM.

Which IC50 (LNCaP) does the source give for `CNC(=O)Nc1ccc2c(c1)C(=O)/C(=C/c1cn(C)c3nccc(-c4ccccc4)c13)O2` here?
The IC50 was 60 µM.

Which IC50 [2] does the source give for `Cn1cc(/C=C2\Oc3ccc(NC(=O)Nc4cccnc4)cc3C2=O)c2c(N3CC4CCC3CO4)ccnc21` (configuration not stated) here?
Its IC50 is 0.249 µM.

What about the IC50 (LNCaP) of the same compound?
The IC50 was 0.0018 µM.

What does the source list for `CN(C)C1CCN(C(=O)C2CCN(c3ccnc4c3c(/C=C3\Oc5ccc(NC(=O)Nc6cccnc6)cc5C3=O)cn4C)CC2)C1` (configuration not stated)?
IC50 [1]: 0.011 µM; IC50 [2]: > 10 µM; IC50 (LNCaP): 2.3 µM

Which IC50 (LNCaP) does the source give for `CN(Cc1ccccn1)C(=O)C1CCN(c2ccnc3c2c(/C=C2\Oc4ccc(NC(=O)Nc5cccnc5)cc4C2=O)cn3C)CC1` here?
The IC50 was 0.04 µM.

Which IC50 [2] does the source give for `Cn1cc(/C=C2\Oc3ccc(NC(=O)Nc4cccnc4)cc3C2=O)c2c(N3C4CCC3COC4)ccnc21` here?
Its IC50 is 0.128 µM.

And the Ratio IC50 [3]?
The Ratio IC50 was 3.

And the IC50 (LNCaP)?
Its IC50 is 0.006 µM.

With `CCN(CC)C(=O)C1CCN(c2ccnc3c2c(/C=C2\Oc4ccc(NC(=O)Nc5cccnc5)cc4C2=O)cn3C)CC1` as the compound, how does the IC50 (LNCaP) read?
Its IC50 is 0.05 µM.

What does the source list for `Cn1cc(/C=C2\Oc3ccc(NC(=O)Nc4cccnc4)cc3C2=O)c2c(N3CCC(C(=O)N4CCOCC4)CC3)ccnc21`?
IC50 [2]: 2.66 µM; Ratio IC50 [3]: 148; IC50 (LNCaP): 3.2 µM

With `CN(Cc1cccnc1)C(=O)C1CCN(c2ccnc3c2c(/C=C2\Oc4ccc(NC(=O)Nc5cccnc5)cc4C2=O)cn3C)CC1` as the compound, how does the IC50 (LNCaP) read?
Its IC50 is 3.2 µM.

With `CN(C)CCNC(=O)Nc1ccc2c(c1)C(=O)/C(=C/c1cn(C)c3nccc(N4CC5CCC(C4)O5)c13)O2` as the compound, how does the IC50 (LNCaP) read?
Its IC50 is 0.06 µM.

Which IC50 [1] does the source give for `CN1CCN(C(=O)C2CCN(c3ccnc4c3c(/C=C3\Oc5ccc(NC(=O)Nc6cccnc6)cc5C3=O)cn4C)CC2)CC1` here?
The IC50 was 0.07 µM.

What about the Ratio IC50 [3] of the same compound?
The Ratio IC50 was 65.7.

And the IC50 (LNCaP)?
Its IC50 is 0.33 µM.

What does the source list for `Cn1cc(/C=C2\Oc3ccc(NC(=O)Nc4cccnc4)cc3C2=O)c2c(N3CCC(C(=O)N4CCCC4)CC3)ccnc21`?
Ratio IC50 [3]: 111; IC50 (LNCaP): 0.012 µM

What does the source list for `Cn1cc(/C=C2\Oc3ccc(NC(=O)Nc4ccccc4)cc3C2=O)c2c(N3CC4CCC(C3)O4)ccnc21`?
Ratio IC50 [3]: 3.4; IC50 (LNCaP): 0.28 µM

For `CN(Cc1ccncc1)C(=O)C1CCN(c2ccnc3c2c(/C=C2\Oc4ccc(NC(=O)Nc5cccnc5)cc4C2=O)cn3C)CC1`, which Ratio IC50 [3] is on record?
The Ratio IC50 was 132.

What about the IC50 (LNCaP) of the same compound?
The IC50 was 0.023 µM.

With `Cn1cc(/C=C2\Oc3ccc(NC(=O)Nc4cccnc4)cc3C2=O)c2c(N3CCC(C(=O)N4C5CCC4COC5)CC3)ccnc21` as the compound, how does the IC50 (LNCaP) read?
The IC50 was 0.2 µM.

Source: ChEMBL document CHEMBL1156282, “4-Substituted-7-azaindoles bearing a ureidobenzofuranone moiety as potent and selective, ATP-competitive inhibitors of the mammalian target of rapamycin (mTOR)” (Bioorg Med Chem Lett, 2010)
